The text below walks through data of patent US20080171687A1, “Compositions And Methods For The Preparation And Administration Of Poorly Water Soluble Drugs” (Abraxis Bioscience, Inc., priority 2004, published 2008).

≈ marks a conversion by molar mass, not a printed value.

Data set [1] in a line: physchem. The conditions noted are these: organic solvent or mixture, thermodynamic from solid, Solubility In DMI (mg/ml).
The conditions of data set [2]: solvent dimethyl isosorbide (DMI); dissolved with gentle heating as needed.

For `COc1ccc2[nH]c([S+]([O-])Cc3ncc(C)c(OC)c3C)nc2c1` (centres unmarked) [Omeprazole], in data set [1], the solubility – broadly, the concentration that dissolves in the medium under given conditions – was 17.4 mg/mL (≈ 50.4 mM).

`CC(C)c1cccc(C(C)C)c1O` [Propofol]: the “Solubility In DMI (mg/ml)” value in data set [2] is “completely”.

For the molecule `CCc1c2c(nc3ccc(O)cc13)-c1cc3c(c(=O)n1C2)COC(=O)[C@]3(O)CC` [SN-38], in data set [2], the “Solubility In DMI” value was less than 1 mg/mL.

With `CC[C@@]1(O)C(=O)OCc2c1cc1n(c2=O)Cc2cc3ccccc3nc2-1` [Campothecin], the solubility in data set [1] (solvent dimethyl isosorbide (DMI), dissolved with gentle heating as needed) is less than 1 mg/mL.

For the molecule `CCC(C)n1ncn(-c2ccc(N3CCN(c4ccc(OCC5COC(Cn6cncn6)(c6ccc(Cl)cc6Cl)O5)cc4)CC3)cc2)c1=O` (centres unmarked) [Itraconazole], the solubility in data set [1] was 9.6 mg/mL (≈ 13.6 mM).

As for `COc1ccc2[nH]cc(CCNC(C)=O)c2c1` [Melatonin], the solubility in data set [1] is 192 mg/mL (≈ 827 mM).

For the molecule `CC(=O)O[C@@]12CO[C@@H]1C[C@H](O)[C@@]1(C)C(=O)[C@H](O)C3=C(C)[C@@H](OC(=O)[C@H](O)[C@@H](NC(=O)OC(C)(C)C)c4ccccc4)C[C@@](O)([C@@H](OC(=O)c4ccccc4)[C@H]21)C3(C)C` [Docetaxel], in data set [1], the solubility was determined as 90 mg/mL (≈ 111 mM).

In the case of `CO[C@H]1C[C@@H]2CC[C@@H](C)[C@@](O)(O2)C(=O)C(=O)N2CCCC[C@H]2C(=O)O[C@H]([C@H](C)C[C@@H]2CC[C@@H](O)[C@H](OC)C2)CC(=O)[C@H](C)/C=C(\C)[C@@H](O)[C@@H](OC)C(=O)[C@H](C)C[C@H](C)/C=C/C=C/C=C/1C` [Rapamycin], the solubility in data set [1] is 121 mg/mL (≈ 132 mM).
